Target: rhGCPII (extracellular part of human GCPII, amino acids 44–750) (Homo sapiens, UniProt Q04609)
Test: Fluorescence polarization
Format: binding

Chain of rhGCPII (extracellular part of human GCPII, amino acids 44–750) (Q04609 44-750): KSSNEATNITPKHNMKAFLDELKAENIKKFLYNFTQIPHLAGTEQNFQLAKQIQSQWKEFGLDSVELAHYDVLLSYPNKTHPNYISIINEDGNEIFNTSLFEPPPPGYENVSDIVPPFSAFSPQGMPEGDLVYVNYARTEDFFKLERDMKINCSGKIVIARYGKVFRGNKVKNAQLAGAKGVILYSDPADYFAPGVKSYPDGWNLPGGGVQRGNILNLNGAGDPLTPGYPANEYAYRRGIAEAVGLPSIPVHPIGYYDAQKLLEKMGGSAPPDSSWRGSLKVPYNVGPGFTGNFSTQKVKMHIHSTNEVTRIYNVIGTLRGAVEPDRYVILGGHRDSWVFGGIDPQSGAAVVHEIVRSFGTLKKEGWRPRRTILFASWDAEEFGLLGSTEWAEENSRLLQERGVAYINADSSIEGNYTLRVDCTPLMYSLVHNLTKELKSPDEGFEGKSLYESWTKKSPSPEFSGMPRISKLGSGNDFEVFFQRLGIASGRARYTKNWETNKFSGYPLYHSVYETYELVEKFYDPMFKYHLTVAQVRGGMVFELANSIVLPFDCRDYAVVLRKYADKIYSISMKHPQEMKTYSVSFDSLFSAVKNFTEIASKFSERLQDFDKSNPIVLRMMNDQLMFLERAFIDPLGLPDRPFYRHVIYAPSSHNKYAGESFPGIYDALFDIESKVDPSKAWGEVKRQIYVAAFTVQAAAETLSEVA

Row | SMILES | IC50
1 | N[C@@H](CCC(=O)O)C(=O)O [glutamic acid] | 870 µM
2 | N[C@@H](Cn1oc(=O)[nH]c1=O)C(=O)O [quisqualate] | 16.7 µM

Reference: publication PMC4112551 (Journal of biomolecular screening, 2012)
